Reference: patent publication US9969742B2, “Imidazotriazinone compounds” (Ironwood Pharmaceuticals, Inc., priority 2012, dated 2018)
Read-outs that look alike come from different tables or passages of the source.

Columns and labels:
Type in all cases: biochemical
[1] = biological target: T1, PDE1A (Homo sapiens, UniProt P54750); test: Phosphodiesterase enzyme screening assay, PDE1A
T1 construct: purchased Reaction Biology Corporation, Malvern, Pa
Procedure, shortened: (§1)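 Compounds were tested on commercial human PDE enzymes using a fluorescent cGMP substrate at 4.0 μM, incubated for one hour at room temperature. Values are means of four wells versus controls.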

[2] = biological target: T2, PDE1B (Homo sapiens, UniProt Q01064); test: Phosphodiesterase enzyme screening assay, PDE1B
T2 construct: purchased Reaction Biology Corporation, Malvern, Pa
Procedure, shortened: as §1

[3] = biological target: T3, PDE9A2 (Homo sapiens, UniProt O76083); test: Phosphodiesterase enzyme screening assay, PDE9A2
T3 construct: purchased Reaction Biology Corporation, Malvern, Pa
Procedure, shortened: as §1

[4] = Table 1, ratio of IC50 values, value greater than 1 indicates greater selectivity for PDE9A2
[5] = Table 1, 10 concentrations, 4.0 μM cGMP substrate, 1 hour at R.T., read-out: Band (PDE9A2 IC50)
[6] = ratio of IC50 values, PDE1A versus PDE9A2, value greater than 1 = greater selectivity for PDE9A2
[7] = ratio of IC50 values, PDE1B versus PDE9A2, value greater than 1 = greater selectivity for PDE9A2
[8] = Table 3, 4.0 μM cGMP substrate, 1 hour at R.T., read-out: Band (PDE9A2 IC50)
[9] = ratio of IC50 values, value greater than 1 indicates greater selectivity for PDE9A2
[10] = ratio of IC50 values PDE1A / PDE9A2, value greater than 1 = greater selectivity for PDE9A2
[11] = ratio of IC50 values PDE1B / PDE9A2, value greater than 1 = greater selectivity for PDE9A2
[12] = 4.0 μM cGMP substrate, 1 hour at R.T., read-out: Band (PDE9A2 IC50)
[13] = Table 2, ratio of IC50 values, value greater than 1 indicates greater selectivity for PDE9A2
[14] = ratio of IC50 values, PDE1A versus PDE9A2, value greater than 1 indicates greater selectivity for PDE9A2
[15] = ratio of IC50 values, PDE1B versus PDE9A2, value greater than 1 indicates greater selectivity for PDE9A2
[16] = ratio of IC50 values PDE1A vs PDE9A2, value greater than 1 indicates greater selectivity for PDE9A2
[17] = ratio of IC50 values PDE1B vs PDE9A2, value greater than 1 indicates greater selectivity for PDE9A2
[18] = IC50 band, 4.0 μM cGMP substrate, 1 hour at R.T.

T3 sequence (O76083 1-533 isoform O76083-2): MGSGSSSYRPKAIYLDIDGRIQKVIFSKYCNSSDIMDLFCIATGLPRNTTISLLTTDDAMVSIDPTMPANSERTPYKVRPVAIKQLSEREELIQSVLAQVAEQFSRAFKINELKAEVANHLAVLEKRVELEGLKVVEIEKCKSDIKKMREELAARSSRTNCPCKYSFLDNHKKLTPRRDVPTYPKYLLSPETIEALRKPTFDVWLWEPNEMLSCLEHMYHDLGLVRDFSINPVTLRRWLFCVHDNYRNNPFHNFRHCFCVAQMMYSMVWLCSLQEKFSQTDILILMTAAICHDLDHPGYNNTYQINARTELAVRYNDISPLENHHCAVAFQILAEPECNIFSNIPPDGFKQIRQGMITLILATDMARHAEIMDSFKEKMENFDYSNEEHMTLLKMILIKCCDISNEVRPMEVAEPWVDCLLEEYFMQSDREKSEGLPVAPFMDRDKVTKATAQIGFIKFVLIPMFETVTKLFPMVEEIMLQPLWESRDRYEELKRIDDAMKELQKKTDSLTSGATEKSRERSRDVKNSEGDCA
T1 sequence (P54750 whole entry): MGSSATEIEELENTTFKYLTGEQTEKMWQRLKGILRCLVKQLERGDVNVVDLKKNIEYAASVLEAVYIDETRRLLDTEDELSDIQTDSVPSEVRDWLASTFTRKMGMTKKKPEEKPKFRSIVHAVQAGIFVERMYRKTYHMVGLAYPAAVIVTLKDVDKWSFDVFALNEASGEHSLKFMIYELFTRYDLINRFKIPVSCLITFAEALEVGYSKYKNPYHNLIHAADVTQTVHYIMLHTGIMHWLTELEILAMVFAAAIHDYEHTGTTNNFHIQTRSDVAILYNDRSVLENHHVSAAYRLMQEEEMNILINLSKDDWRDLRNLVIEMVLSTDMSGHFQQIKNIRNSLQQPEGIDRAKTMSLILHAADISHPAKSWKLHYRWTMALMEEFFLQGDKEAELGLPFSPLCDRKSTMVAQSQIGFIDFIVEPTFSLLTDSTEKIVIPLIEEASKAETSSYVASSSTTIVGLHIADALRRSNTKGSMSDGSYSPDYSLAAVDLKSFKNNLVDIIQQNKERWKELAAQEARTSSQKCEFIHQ
T2 sequence (Q01064 whole entry): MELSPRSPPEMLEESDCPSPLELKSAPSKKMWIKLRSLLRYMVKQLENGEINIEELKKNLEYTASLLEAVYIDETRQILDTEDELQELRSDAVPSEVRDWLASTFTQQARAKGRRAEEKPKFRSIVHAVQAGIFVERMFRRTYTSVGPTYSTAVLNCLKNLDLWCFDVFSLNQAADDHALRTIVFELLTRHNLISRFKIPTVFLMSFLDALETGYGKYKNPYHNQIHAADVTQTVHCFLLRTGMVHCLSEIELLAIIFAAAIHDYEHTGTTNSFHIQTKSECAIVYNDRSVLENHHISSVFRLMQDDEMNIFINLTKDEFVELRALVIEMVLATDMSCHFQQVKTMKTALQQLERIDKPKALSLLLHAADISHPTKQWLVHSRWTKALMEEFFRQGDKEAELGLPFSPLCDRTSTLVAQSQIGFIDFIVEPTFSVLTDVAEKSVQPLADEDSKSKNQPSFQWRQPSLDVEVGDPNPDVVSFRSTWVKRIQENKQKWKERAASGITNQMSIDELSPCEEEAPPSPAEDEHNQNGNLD

## CC1CN(Cc2ccc3ncccc3c2)CC1c1nn2c(C3CCOCC3)ncc2c(=O)[nH]1 (single isomer, unassigned; (+)) [(+)-2-((3,4-trans)-4-methyl-1-(quinolin-6-ylmethyl)pyrrolidin-3-yl)-7-(tetrahydro-2H-pyran-4-yl)imidazo[5,1-f][1,2,4]triazin-4(3H)-one]
[1]; [4]
  PDE1A selectivity (versus PDE9A2): 520
[2]; [4]
  PDE1B selectivity (versus PDE9A2): 1525
[3]; [5]
  IC50: < 1000 nM

## CC1CN(Cc2cccc3cccnc23)CC1c1nn2c(C3CCOCC3)ncc2c(=O)[nH]1 (single isomer, unassigned; (+)) [(+)-2-((3,4-trans)-4-methyl-1-(quinolin-8-ylmethyl)pyrrolidin-3-yl)-7-(tetrahydro-2H-pyran-4-yl)imidazo[5,1-f][1,2,4]triazin-4(3H)-one]
[1]; [6]
  PDE1A selectivity (versus PDE9A2): 647
[2]; [7]
  PDE1B selectivity (versus PDE9A2): 673
[3]; [8]
  IC50: < 1000 nM

## CC1CN(Cc2cnc3ccccc3n2)CC1c1nn2c(C3CCOCC3)ncc2c(=O)[nH]1 (single isomer, unassigned; (+)) [(+)-2-((3,4-trans)-4-methyl-1-(quinoxalin-2-ylmethyl)pyrrolidin-3-yl)-7-(tetrahydro-2H-pyran-4-yl)imidazo[5,1-f][1,2,4]triazin-4(3H)-one]
[1]; [4]
  PDE1A selectivity (versus PDE9A2): 453
[2]; [4]
  PDE1B selectivity (versus PDE9A2): 1130
[3]; [5]
  IC50: < 1000 nM

## CC1CN(Cc2nccs2)CC1c1nn2c(C3CCOCC3)ncc2c(=O)[nH]1 (single isomer, unassigned; (+)) [(+)-2-((3,4-trans)-4-methyl-1-(thiazol-2-ylmethyl)pyrrolidin-3-yl)-7-(tetrahydro-2H-pyran-4-yl)imidazo[5,1-f][1,2,4]triazin-4(3H)-one]
[1]; [9]
  PDE1A selectivity (versus PDE9A2): 150
[2]; [9]
  PDE1B selectivity (versus PDE9A2): 147
[3]; read-out: Band (PDE9A2 IC50)
  IC50: < 1000 nM

## CC1CN(Cc2cccs2)CC1c1nn2c(C3CCOCC3)ncc2c(=O)[nH]1 (single isomer, unassigned; (+)) [(+)-2-((3,4-trans)-4-methyl-1-(thiophen-2-ylmethyl)pyrrolidin-3-yl)-7-(tetrahydro-2H-pyran-4-yl)imidazo[5,1-f][1,2,4]triazin-4(3H)-one]
[1]; [10]
  PDE1A selectivity (versus PDE9A2): 91
[2]; [11]
  PDE1B selectivity (versus PDE9A2): 140
[3]; [12]
  IC50: < 1000 nM

## CC1CN(Cc2ccsc2)CC1c1nn2c(C3CCOCC3)ncc2c(=O)[nH]1 (single isomer, unassigned; (+)) [(+)-2-((3,4-trans)-4-methyl-1-(thiophen-3-ylmethyl)pyrrolidin-3-yl)-7-(tetrahydro-2H-pyran-4-yl)imidazo[5,1-f][1,2,4]triazin-4(3H)-one]
[1]; [6]
  PDE1A selectivity (versus PDE9A2): 176
[2]; [7]
  PDE1B selectivity (versus PDE9A2): 209
[3]; [8]
  IC50: < 1000 nM

## CC1CN(CCc2ccccc2)CC1c1nn2c(C3CCOCC3)ncc2c(=O)[nH]1 (single isomer, unassigned; (+)) [(+)-2-((3,4-trans)-4-methyl-1-phenethylpyrrolidin-3-yl)-7-(tetrahydro-2H-pyran-4-yl)imidazo[5,1-f][1,2,4]triazin-4(3H)-one]
[1]; [4]
  PDE1A selectivity (versus PDE9A2): 28
[2]; [4]
  PDE1B selectivity (versus PDE9A2): 23
[3]; [5]
  IC50: < 1000 nM

## CC1CN(Cc2ccccc2C#N)CC1c1nn2c(C3CCOCC3)ncc2c(=O)[nH]1 (single isomer, unassigned; (+)) [(+)-2-(((3,4-trans)-3-methyl-4-(4-oxo-7-(tetrahydro-2H-pyran-4-yl)-3,4-dihydroimidazo[5,1-f][1,2,4]triazin-2-yl)pyrrolidin-1-yl)methyl)benzonitrile]
[1]; [4]
  PDE1A selectivity (versus PDE9A2): 241
[2]; [4]
  PDE1B selectivity (versus PDE9A2): 220
[3]; [5]
  IC50: < 1000 nM

## CC1CN(Cc2ncc(C#N)cn2)CC1c1nn2c(C3CCOCC3)ncc2c(=O)[nH]1 (single isomer, unassigned; (+)) [(+)-2-(((3,4-trans)-3-methyl-4-(4-oxo-7-(tetrahydro-2H-pyran-4-yl)-3,4-dihydroimidazo[5,1-f][1,2,4]triazin-2-yl)pyrrolidin-1-yl)methyl)pyrimidine-5-carbonitrile]
[1]; [13]
  PDE1A selectivity (versus PDE9A2): 22
[2]; [13]
  PDE1B selectivity (versus PDE9A2): 65
[3]; Table 2, 10 concentrations, 4.0 μM cGMP substrate, 1 hour at R.T., read-out: Band (PDE9A2 IC50)
  IC50: < 1000 nM

## CC1CN(Cc2ccc(F)c(C#N)c2)CC1c1nn2c(C3CCOCC3)ncc2c(=O)[nH]1 (single isomer, unassigned; (+)) [(+)-2-fluoro-5-(((3,4-trans)-3-methyl-4-(4-oxo-7-(tetrahydro-2H-pyran-4-yl)-3,4-dihydroimidazo[5,1-f][1,2,4]triazin-2-yl)pyrrolidin-1-yl)methyl)benzonitrile]
[1]; [10]
  PDE1A selectivity (versus PDE9A2): 61
[2]; [11]
  PDE1B selectivity (versus PDE9A2): 58
[3]; [12]
  IC50: < 1000 nM

## CC1CN(Cc2cccc(C#N)c2)CC1c1nn2c(C3CCOCC3)ncc2c(=O)[nH]1 (single isomer, unassigned; (+)) [(+)-3-(((3,4-trans)-3-methyl-4-(4-oxo-7-(tetrahydro-2H-pyran-4-yl)-3,4-dihydroimidazo[5,1-f][1,2,4]triazin-2-yl)pyrrolidin-1-yl)methyl)benzonitrile]
[1]; [4]
  PDE1A selectivity (versus PDE9A2): 942
[2]; [4]
  PDE1B selectivity (versus PDE9A2): 343
[3]; [5]
  IC50: < 1000 nM

## CC1CN(Cc2ncccn2)CC1c1nn2c(-c3ccccc3F)ncc2c(=O)[nH]1 (single isomer, unassigned; (+)) [(+)-7-(2-fluorophenyl)-2-((3,4-trans)-4-methyl-1-(pyrimidin-2-ylmethyl)pyrrolidin-3-yl)imidazo[5,1-f][1,2,4]triazin-4(3H)-one]
[1]; ratio of IC50 values PDE1A / PDE9A2, value greater than 1 indicates greater selectivity for PDE9A2
  PDE1A selectivity (versus PDE9A2): 19
[2]; ratio of IC50 values PDE1B / PDE9A2, value greater than 1 indicates greater selectivity for PDE9A2
  PDE1B selectivity (versus PDE9A2): 39
[3]; [12]
  IC50: < 1000 nM

## CC1CN(Cc2ccccn2)CC1c1nn2c(-c3cccc(F)c3)ncc2c(=O)[nH]1 (single isomer, unassigned; (+)) [(+)-7-(3-fluorophenyl)-2-((3,4-trans)-4-methyl-1-(pyridin-2-ylmethyl)pyrrolidin-3-yl)imidazo[5,1-f][1,2,4]triazin-4(3H)-one]
[1]; [14]
  PDE1A selectivity (versus PDE9A2): 190
[2]; [15]
  PDE1B selectivity (versus PDE9A2): 236
[3]; read-out: Band (PDE9A2 IC50)
  IC50: < 1000 nM

## CC1CN(Cc2cccnc2)CC1c1nn2c(-c3cccc(F)c3)ncc2c(=O)[nH]1 (single isomer, unassigned; (+)) [(+)-7-(3-fluorophenyl)-2-((3,4-trans)-4-methyl-1-(pyridin-3-ylmethyl)pyrrolidin-3-yl)imidazo[5,1-f][1,2,4]triazin-4(3H)-one]
[1]; [14]
  PDE1A selectivity (versus PDE9A2): 15
[2]; [15]
  PDE1B selectivity (versus PDE9A2): 37
[3]; read-out: Band (PDE9A2 IC50)
  IC50: < 1000 nM

## CC1CN(Cc2cn3ccccc3n2)CC1c1nn2c(C3CCC(F)(F)CC3)ncc2c(=O)[nH]1 (single isomer, unassigned; (+)) [(+)-7-(4,4-difluorocyclohexyl)-2-((3,4-trans)-1-(imidazo[1,2-a]pyridin-2-ylmethyl)-4-methylpyrrolidin-3-yl)imidazo[5,1-f][1,2,4]triazin-4(3H)-one]
[1]; [16]
  PDE1A selectivity (versus PDE9A2): 405
[2]; [17]
  PDE1B selectivity (versus PDE9A2): 1659
[3]; [18]
  IC50: < 1000 nM

## CC1CN(Cc2cnccn2)CC1c1nn2c(C3CCC(F)(F)CC3)ncc2c(=O)[nH]1 (single isomer, unassigned; (+)) [(+)-7-(4,4-difluorocyclohexyl)-2-((3,4-trans)-4-methyl-1-(pyrazin-2-ylmethyl)pyrrolidin-3-yl)imidazo[5,1-f][1,2,4]triazin-4(3H)-one]
[1]; [16]
  PDE1A selectivity (versus PDE9A2): 233
[2]; [17]
  PDE1B selectivity (versus PDE9A2): 575
[3]; [18]
  IC50: < 1000 nM

## CC1CN(Cc2ccccn2)CC1c1nn2c(C3CCC(F)(F)CC3)ncc2c(=O)[nH]1 (single isomer, unassigned; (+)) [(+)-7-(4,4-difluorocyclohexyl)-2-((3,4-trans)-4-methyl-1-(pyridin-2-ylmethyl)pyrrolidin-3-yl)imidazo[5,1-f][1,2,4]triazin-4(3H)-one]
[1]; [16]
  PDE1A selectivity (versus PDE9A2): 167
[2]; [17]
  PDE1B selectivity (versus PDE9A2): 362
[3]; [18]
  IC50: < 1000 nM
